≈ marks a conversion by molar mass, not a printed value.
Legend:
[1] = tested on: Haemophilus influenzae 54A1218; assay: Gerbil middle ear (otitis media) infection model, ED50, H. influenzae 54A1218; type: in vivo; conditions: for ED50: past studies
H. influenzae 54A1218 = assay: MIC determination, H. influenzae 54A1218; type: cell-based; conditions: Haemophilus influenzae
Experimental: MIC Determinations. Streptococcus pneumoniae, S. pyogenes, E. faecalis, and H. influenzae MICs were determined using the broth microdilution procedure recommended by the NCCLS. Test trays were incubated at 35C without carbon dioxide. For testing of streptococci, the cation-adjusted Mueller-Hinton broth was supplemented with 2–3% lysed horse blood. For testing H. influenzae, freshly prepared Haemophilus Test Medium broth was used.
Bacterial Strains. • S. pneumoniae 02J1016, serotype 3, originally isolated from blood culture (strain P 4241) (MLS- and penicillin-susceptible). • S. pyogenes 02C0203, ATCC 12384, group A, type 3 (MLS-susceptible). • E. faecalis 03A1085, vancomycin susceptible clinically derived strain. • H. influenzae 54A1100, (43095 ATCC Fulghum strain) non-serotype B strain originally isolated from otitis media (macrolide and penicillin susceptible). • H. influenzae 54A1218, clinically derived non-serotype B strain (macrolide-susceptible, penicillin-resistant, TEM-1 beta-lactamase).

[2] = Azithromycin serum pharmacokinetics in mice; type: in vivo, mouse; conditions: for Cmax / Tmax / AUC(0-t): female, CF-1, mouse, Serum PK, total dose 100 mg/kg oral; for AUC(0-t): read-out: AUC(0-tlast)
Experimental: Blood and pulmonary tissue samples were taken starting at 0.5 h post-dose and at predetermined intervals over a 96 h period. […] […] The lower limit of quantification (LLOQ) was 50 ng/ml. […] Interassay variability was <7%. Pharmacokinetic parameters were calculated using the non-compartmental method by WinNonlin 2.1 (Scientific Consulting, Inc.).

[3] = Azithromycin pulmonary tissue pharmacokinetics in mice; type: in vivo; conditions: female, CF-1, mouse, lung (pulmonary tissue), Pulmonary PK, total dose 100 mg/kg oral; for AUC(0-t): read-out: AUC(0-tlast)
Experimental: Blood and pulmonary tissue samples were taken starting at 0.5 h post-dose and at predetermined intervals over a 96 h period. Plasma and lung samples were prepared and maintained at −70 C. […] The lower limit of quantification (LLOQ) was 50 ng/ml. […] Interassay variability was <7%. Pharmacokinetic parameters were calculated using the non-compartmental method by WinNonlin 2.1 (Scientific Consulting, Inc.).

H. influenzae = assay: Study 95-001 Kirby-Bauer disk diffusion susceptibility, H. influenzae; type: cell-based, Haemophilus influenzae; conditions: all H. influenzae organisms isolated
Experimental: Specimens for culture and susceptibility testing were obtained from the infected ear by tympanocentesis within 24 h of start of therapy. […] However, the study was evaluated using the breakpoints in the most recent set of guidelines.

[4] = oral QD, gerbil otitis media model
[5] = 33 mg/kg, 3 days of dosing, 33.3 mg/kg/dose
[6] = 1 day of dosing, 100 mg/kg/dose
[7] = 2 days of dosing, 50 mg/kg/dose

Compound: CC[C@H]1OC(=O)[C@H](C)[C@@H](O[C@H]2C[C@@](C)(OC)[C@@H](O)[C@H](C)O2)[C@H](C)[C@@H](O[C@@H]2O[C@H](C)C[C@H](N(C)C)[C@H]2O)[C@](C)(O)C[C@@H](C)CN(C)[C@H](C)[C@@H](O)[C@]1(C)O [Azithromycin, 9a-aza-9a-methyl-9-deoxo-9a-homoerythromycin A]
- ED50 One-Day Therapy [1, 4]: 84 mg/kg/therapy
- ED50 Three-Day Therapy [1, 4]: 65 mg/kg/therapy
- ED50 Two-Day Therapy [1, 4]: 53 mg/kg/therapy
- ED50 ([1]; Q.D. 1): 83.8 (53.6–114.1) mg/kg/total regimen
- ED50 ([1]; Q.D. 2): 53.4 (21.2–85.5) mg/kg/total regimen
- ED50 ([1]; Q.D. 3): 65.2 (51–79.4) mg/kg/total regimen
- MIC (H. influenzae 54A1218): 0.78 µg/mL (≈ 1.04 µM)
- Cmax, single dose vs. the same total dose administered over 3 days ([2]; better when administered as a single dose): 3 fold
- Cmax [2, 5]: 980 ng/mL
- Tmax [2, 5]: 26 h
- AUC(0-t) [2, 5]: 19.8 µg·h/mL
- Cmax [2, 6]: 2100 ng/mL
- Tmax [2, 6]: 2 h
- AUC(0-t) [2, 6]: 18.8 µg·h/mL
- Cmax [2, 7]: 1300 ng/mL
- Tmax [2, 7]: 26 h
- AUC(0-t) [2, 7]: 15.9 µg·h/mL
- Cmax [3, 5]: 28000 ng/mL
- Tmax [3, 5]: 12 h
- AUC(0-t) [3, 5]: 1050 µg·h/mL
- Cmax [3, 6]: 40000 ng/mL
- Tmax [3, 6]: 4 h
- AUC(0-t) [3, 6]: 970 µg·h/mL
- Cmax [3, 7]: 31000 ng/mL
- Tmax [3, 7]: 28 h
- AUC(0-t) [3, 7]: 870 µg·h/mL
- zone sizes (agar diffusion) (H. influenzae): ≥ 19 mm
- susceptibility by agar diffusion (zone size) (H. influenzae; NCCLS breakpoint of ≧12 mm): susceptible

Source: US6987093B2 (priority 2001, dated 2006)
